Experiments:
[1] = target: T1, Protein farnesyltransferase (Homo sapiens, UniProt P49354+P49356); assay: In vitro FPT potency by measuring the ability to inhibit the transfer of [3H]farnesyl from farnesyl pyrophosphate to H-Ras-CLVS.; type: protein-complex assay
[2] = target: T1, Protein farnesyltransferase; assay: In vitro inhibition of Ras processing in COS cells; type: functional, cell-based
[3] = target: T1, Protein farnesyltransferase; assay: In vitro inhibition of Ras processing by COS cells at 20 uM; type: functional, cell-based
[4] = target: T1, Protein farnesyltransferase; assay: In vitro inhibition of [3H]farnesyl incorporation into H-Ras-CLVS by farnesyl transferase at 1.2 uM; type: protein-complex assay
[5] = target: T1, Protein farnesyltransferase; assay: In vitro inhibition of [3H]farnesyl incorporation into H-Ras-CLVS by farnesyl transferase at 0.042 uM; type: protein-complex assay
[6] = target: T1, Protein farnesyltransferase; assay: In vitro inhibition of [H]-farnesyl incorporation into H-Ras-CLVS by farnesyl transferase at 1.3 uM; type: protein-complex assay

| Structure (SMILES) | IC50 [1] [nM] | also measured |
| --- | --- | --- |
| O=C(Cc1cc[n+]([O-])cc1)N1CCN(C2c3ccc(Cl)cc3SCc3cccnc32)CC1 (stereo not given) | 79 | IC50 [2]: 10000 nM |
| NC(=O)N1CCC(CC(=O)N2CCC(=C3c4ccc(Cl)cc4SCc4cccnc43)CC2)CC1 | 920 | IC50 [2]: 3800 nM |
| N#CN/C(=N\Cc1ccncc1)N1CCN(C2c3ccc(Cl)cc3SCc3cccnc32)CC1 (stereo not given) | 61 | – |
| N#CN/C(=N\Cc1ccc[n+]([O-])c1)N1CCN(C2c3ccc(Cl)cc3SCc3cccnc32)CC1 (stereo not given) | 140 | – |
| O=C(Cc1ccncc1)N1CCN(C2c3ccc(Cl)cc3S(=O)(=O)Cc3cccnc32)CC1 (stereo not given) | 1000 | – |
| O=C(Cc1cc[n+]([O-])cc1)N1CCC(=C2c3ccc(Cl)cc3OCc3cccnc32)CC1 | 1520 | inhibition [3]: 41% |
| O=C(CC1CCNCC1)N1CCC(=C2c3ccc(Cl)cc3S(=O)(=O)Cc3cccnc32)CC1 | – | inhibition [4]: 28% |
| CN1CCC(CC(=O)N2CCN(C3c4ccc(Cl)cc4SCc4cccnc43)CC2)CC1 (stereo not given) | 2100 | – |
| CN1Cc2cccnc2C(N2CCN(C(=O)Cc3cc[n+]([O-])cc3)CC2)c2ccc(Cl)cc21 (stereo not given) | 2700 | IC50 [2]: 20000 nM |
| O=C(Cc1ccncc1)N1CCC(=C2c3ccc(Cl)cc3SCc3cccnc32)CC1 | 190 | IC50 [2]: 4200 nM |
| O=C(CSc1cc[n+]([O-])cc1)N1CCC(=C2c3ccc(Cl)cc3SCc3cccnc32)CC1 | 620 | IC50 [2]: 5000 nM |
| N#CN=C(NCc1ccncc1)N1CCC(=C2c3ccc(Cl)cc3SCc3cccnc32)CC1 | 43 | IC50 [2]: 1700 nM |
| CN1CCC(CC(=O)N2CCC(=C3c4ccc(Cl)cc4SCc4cccnc43)CC2)CC1 | 1790 | – |
| O=C(Cc1ccncc1)N1CCN(C2c3ccc(Cl)cc3SCc3cccnc32)CC1 (stereo in doubt; 40) | 1000 | – |
| O=C(Cc1cc[n+]([O-])cc1)N1CCC(=C2c3ccc(Cl)cc3SCc3cccnc32)CC1 | 520 | IC50 [2]: 10000 nM |
| O=C(Cc1cc[n+]([O-])cc1)N1CCC(=C2c3ccc(Cl)cc3OCc3cc(Br)cnc32)CC1 | 110 | – |
| CN1Cc2cccnc2C(N2CCN(C(=O)Cc3ccncc3)CC2)c2ccc(Cl)cc21 (stereo not given) | 840 | inhibition [3]: 0% |
| O=C(Cc1cc[n+]([O-])cc1)N1CCN(C2c3ccc(Cl)cc3S(=O)(=O)Cc3cccnc32)CC1 (stereo not given) | 3400 | – |
| N#CN/C(=N\Cc1ccc[n+]([O-])c1)N1CCC(=C2c3ccc(Cl)cc3SCc3cccnc32)CC1 | 38 | inhibition [3]: 26% |
| O=C(Cc1ccncc1)N1CCC(=C2c3ccc(Cl)cc3S(=O)(=O)Cc3cccnc32)CC1 | 560 | – |
| O=C(CC1CCNCC1)N1CCN(C2c3ccc(Cl)cc3SCc3cccnc32)CC1 (stereo not given) | 1100 | – |
| NC(=O)N1CCC(CC(=O)N2CCN(C3c4ccc(Cl)cc4SCc4cccnc43)CC2)CC1 (stereo not given) | 1120 | – |
| O=C(CC1CCNCC1)N1CCC(=C2c3ccc(Cl)cc3SCc3cccnc32)CC1 | 590 | – |
| CN1Cc2cccnc2C(N2CCN(/C(=N/Cc3ccncc3)NC#N)CC2)c2ccc(Cl)cc21 (stereo not given) | 140 | inhibition [3]: 10% |
| N#CN/C(=N\Cc1ccncc1)N1CCC(=C2c3ccc(Cl)cc3OCc3cccnc32)CC1 | – | inhibition [5]: 25% |
| NC(=O)N1CCC(CC(=O)N2CCC(=C3c4ccc(Cl)cc4S(=O)(=O)Cc4cccnc43)CC2)CC1 | – | inhibition [4]: 35% |
| O=C(Cc1ccncc1)N1CCN(C2c3ccc(Cl)cc3SCc3cccnc32)CC1 (stereo in doubt; 36) | 32 | – |
| CN1Cc2cccnc2C(N2CCN(C(=O)CC3CCNCC3)CC2)c2ccc(Cl)cc21 (stereo not given) | – | inhibition [6]: 10% |
| O=C(Cc1cc[n+]([O-])cc1)N1CCC(=C2c3ccc(Cl)cc3S(=O)(=O)Cc3cccnc32)CC1 | – | inhibition [4]: 30% |
